Source: US20180305334A1, “COMPOUNDS, COMPOSITIONS AND METHODS OF USE AGAINST STRESS GRANULES” (Aquinnah Pharmaceuticals, Inc., priority 2015, published 2018)

The compounds below were run on TDP-43 aggregation in PC12 cells stably expressing TDP-43^Q331K::eGFP (assay: In vitro efficacy assay, TDP-43 aggregation concentration-response). Details: Rattus norvegicus, PC-12, inhibition of TDP-43 aggregation; PC12 TDP-43^Q331K::eGFP, 1 hour pre-treatment, 15 μM sodium arsenite for 23 hours; 10-point dose response.
Format: cell-based
Description: Exemplary compounds of the invention were evaluated for efficacy in inhibiting TDP-43 inclusions using a concentration-response assay. Briefly, PC12 cells stably expressing a GFP-tagged mutant form of TDP-43 (TDP-43^Q331K::eGFP) were pre-treated for 1 hour with exemplary compounds and stressed with 15 μM sodium arsenite for 23 hours to induce TDP-43 aggregation. The inhibitory effect on TDP-43 aggregation was measured using fluorescence microscopy. The ratio of cells with TDP-43 aggregates was calculated based on the total number of cells with detectable GFP expression.
In the case of `CCN(CC1CCN(C(C)(C)c2ccc(OC)cc2)CC1)C(=O)c1cc2ccccc2[nH]1` [Compound 358], the IC50 is reported as < 1500 nM. `CCN(CC1CCN(Cc2ccccc2Cl)CC1)C(=O)c1cc2ccccc2[nH]1` [compound 286] was tested, and the IC50 was 1500 to 4000 nM. For `CCN(CC1CCCN(CCc2ccc(Cl)cc2)C1)C(=O)c1cc2ccccc2[nH]1` (centres unmarked) [Compound 128], the IC50 was < 1500 nM. With `CCN(CC1CCN(Cc2cccc(OC(F)(F)F)c2)CC1)C(=O)c1cc2cc(OC(F)(F)F)ccc2[nH]1` [compound 308] the IC50 was > 10000 nM. `COc1ccccc1CN1CCC(CNC(=O)c2cc3ccccc3[nH]2)CC1` [compound 273] showed an IC50 of 1500 to 4000 nM. `CCN(CC1CCCN(CCc2cccc(OC)c2)C1)C(=O)c1ccc2ccccc2c1` (centres unmarked) [Compound 237] was tested, and the IC50 was 1500 to 4000 nM. With `CCN(CC1CCCN(CCc2cccc(F)c2)C1)C(=O)c1cc2ccccc2[nH]1` (centres unmarked) [Compound 140] the IC50 was < 1500 nM. For `CCN(CC1CCN(Cc2ccccc2F)CC1)C(=O)c1cc2ccccc2[nH]1` [compound 268], the IC50 was 1500 to 4000 nM. For `CC(C)N(CC1CCN(Cc2cccc(Cl)c2)CC1)C(=O)c1cc2ccccc2[nH]1` [compound 278], the IC50 was 4000 to 7000 nM. In the case of `CCN(CC1CCCN(Cc2ccc(Cl)cc2)C1)C(=O)c1cc2ccccc2[nH]1` (centres unmarked) [Compound 138], the IC50 is reported as < 1500 nM. In the case of `CCN(CC1CCNCC1)C(=O)c1cc2cc(OC(F)F)ccc2[nH]1` [compound 402], the IC50 is reported as > 10000 nM. For `CCN(CC1CCN(C(C)(C)c2cc3ccccc3o2)CC1)C(=O)c1cc2ccccc2[nH]1` [Compound 340], the IC50 was < 1500 nM. `CCN(CC1CCCN(Cc2ccc(OC)cc2)C1)C(=O)c1cc2c(F)cc(F)cc2[nH]1` (centres unmarked) [Compound 170] was tested, and the IC50 was < 1500 nM. For `CCN(CC1CCCN(Cc2ccc(Cl)cc2)C1)C(=O)c1cc2cc(F)ccc2[nH]1` (centres unmarked) [Compound 150], the IC50 was < 1500 nM. `CC(C)(Cc1cccc(F)c1)N1CCC(CN(CC(F)(F)F)C(=O)c2cc3ccccc3[nH]2)CC1` [Compound 353] was tested, and the IC50 was < 1500 nM. `CCN(CC1CCCN(Cc2ccc(C(=O)O)cc2)C1)C(=O)c1cc2ccccc2[nH]1` (centres unmarked) [Compound 213] was tested, and the IC50 was > 10000 nM. In the case of `CCN(CC1CCCN(CCc2cccc(OC)c2)C1)C(=O)c1n[nH]c2ccccc12` (centres unmarked) [Compound 249], the IC50 is reported as < 1500 nM. Compound `CCN(CC1CCCN(c2ccc(OC)cc2)C1)C(=O)c1cc2ccccc2[nH]1` (centres unmarked) [Compound 227] has an IC50 of 1500 to 4000 nM. With `CCN(CC1CCN(Cc2ccccc2)CC1)C(=O)c1cc2ccccc2[nH]1` [compound 291] the IC50 was 1500 to 4000 nM. Compound `COc1cccc(CC(=O)N2CCC(CNC(=O)c3cc4ccccc4[nH]3)CC2)c1` [Compound 322] has an IC50 of 1500 to 4000 nM. In the case of `CCN(CC1CCCN(Cc2cccc(F)c2)C1)C(=O)c1cc2ccccc2[nH]1` (centres unmarked) [Compound 131], the IC50 is reported as > 10000 nM. `COc1ccc(CN2CCC(CNC(=O)c3cc4ccccc4[nH]3)CC2)cc1` [compound 274] was tested, and the IC50 was > 10000 nM. With `CCN(CC1CCCN(C(C)(C)c2ccc(OC)cc2)C1)C(=O)c1cc2cc(OC)ccc2[nH]1` (centres unmarked) [Compound 356] the IC50 was < 1500 nM. Work on `CCN(CC1CCCN(CCc2cccc(OC)c2)C1)C(=O)c1cc(C#N)c[nH]1` (centres unmarked) [Compound 242] yielded an IC50 of 1500 to 4000 nM. `CCN(CC1CCCN(Cc2ccc(Cl)cc2)C1)C(=O)c1cc2ccc(Cl)cc2[nH]1` (centres unmarked) [Compound 164] showed an IC50 of 1500 to 4000 nM. `CCN(CC1CCN(CC(F)(F)c2cccc(OC)c2)CC1)C(=O)c1cc2ccccc2[nH]1` [Compound 412] showed an IC50 of 1500 to 4000 nM. `CCN(CC1CCN(Cc2ccc(Cl)cc2)CC1)C(=O)c1cc2cc(OC)ccc2[nH]1` [compound 403] was tested, and the IC50 was 1500 to 4000 nM. Work on `CCN(CC1CCCN(CCc2ccccc2F)C1)C(=O)c1cc2ccccc2[nH]1` (centres unmarked) [Compound 123] yielded an IC50 of 1500 to 4000 nM. For `CCN(CC1CCCNC1)C(=O)c1cc2ccc(OC)cc2[nH]1` (centres unmarked) [compound 419], the IC50 was > 10000 nM. For `CCN(CC1CCCN(Cc2ccc(OC)cc2)C1)C(=O)c1cc2ccc(Cl)cc2[nH]1` (centres unmarked) [Compound 168], the IC50 was < 1500 nM. Work on `CCN(CC1CCCN(CCc2ccccc2)C1)C(=O)c1cc2ccccc2[nH]1` (centres unmarked) [Compound 216] yielded an IC50 of 1500 to 4000 nM. For `CCN(CC1CCN(C2CCc3ccccc3C2)CC1)C(=O)c1cc2ccccc2[nH]1` (centres unmarked) [Compound 211], the IC50 was 1500 to 4000 nM. `CCN(CC1CCCN(C(C)(C)c2ccc(OC)cc2)C1)C(=O)c1cc2cc(Cl)ccc2[nH]1` (centres unmarked) [Compound 357] was tested, and the IC50 was < 1500 nM. For `CC(C)(Cc1cccc(F)c1)N1CCCC(CN(CC(F)(F)F)C(=O)c2cc3ccccc3[nH]2)C1` (centres unmarked) [Compound 352], the IC50 was < 1500 nM. `CCN(CC1CCCN(CC(C)(C)c2cccc(OC)c2)C1)C(=O)c1cc2cc(OC)ccc2[nH]1` (centres unmarked) [Compound 406] was tested, and the IC50 was < 1500 nM. `CCN(CC1CCCN(Cc2ccc(Cl)cc2)C1)C(=O)c1cc2cc(OCc3ccccc3)ccc2[nH]1` (centres unmarked) [Compound 173] was tested, and the IC50 was 1500 to 4000 nM. With `CCN(CC1CCCN(CCc2cccc(OC(F)F)c2)C1)C(=O)c1cc2cc(OC(F)F)ccc2[nH]1` (centres unmarked) [Compound 180] the IC50 was > 10000 nM. In the case of `CCN(CC1CCN(CC(F)(F)c2ccccc2)CC1)C(=O)c1cc2ccccc2[nH]1` [Compound 411], the IC50 is reported as < 1500 nM. In the case of `CCN(CC1CCCN(CCc2ccccc2C#N)C1)C(=O)c1cc2ccccc2[nH]1` (centres unmarked) [Compound 147], the IC50 is reported as > 10000 nM. In the case of `CCN(CC1CCCN(Cc2ccc(OC)cc2)C1)C(=O)c1cc2cc(OC)ccc2[nH]1` (centres unmarked) [Compound 149], the IC50 is reported as < 1500 nM. In the case of `CCN(CC1CCCN(Cc2ccc(F)cc2)C1)C(=O)c1cc2ccccc2[nH]1` (centres unmarked) [Compound 135], the IC50 is reported as < 1500 nM. `CCN(CC1CCCN(CCc2cccc(OC)c2)C1)C(=O)c1cc2ccccc2s1` (centres unmarked) [Compound 235] showed an IC50 of 1500 to 4000 nM. For `CCN(CC1CCCN(CCc2cccc(OC)c2)C1)C(=O)c1ccccc1` (centres unmarked) [Compound 234], the IC50 was > 10000 nM. With `CCN(CC1CCN(Cc2cc3ccccc3o2)CC1)C(=O)c1cc2ccccc2[nH]1` [Compound 327] the IC50 was 7000 to 9900 nM. `CCN(CC1CCCN(CCc2cccc(OC)c2)C1)C(=O)c1ccc(C)[nH]1` (centres unmarked) [Compound 246] showed an IC50 of 1500 to 4000 nM. For `CC(C)N(CC1CCN(Cc2ccc(F)cc2)CC1)C(=O)c1cc2ccccc2[nH]1` [compound 284], the IC50 was > 10000 nM. In the case of `CCN(CC1CCCN(Cc2cc3ccccc3o2)C1)C(=O)c1cc2c(F)cc(F)cc2[nH]1` (centres unmarked) [Compound 205], the IC50 is reported as 1500 to 4000 nM. For `CC(C)N(CC1CCNCC1)C(=O)c1cc2ccccc2[nH]1` [compound 276], the IC50 was > 10000 nM. In the case of `CCN(CC1CCCN(C(C)(C)Cc2cccc(Cl)c2)C1)C(=O)c1cc2ccccc2[nH]1` (centres unmarked) [compound 314], the IC50 is reported as < 1500 nM. In the case of `CCN(CC1CCCNC1)C(=O)c1cc2ccccc2[nH]1` (centres unmarked) [Compound 413], the IC50 is reported as > 10000 nM. `CC(C)(Cc1ccccc1)N1CCC(CN(CC(F)(F)F)C(=O)c2cc3ccccc3[nH]2)CC1` [Compound 354] was tested, and the IC50 was < 1500 nM. In the case of `CCN(CC1CCCN(CC(C)(C)c2cccc(OC(F)F)c2)C1)C(=O)c1cc2cc(OC(F)F)ccc2[nH]1` (centres unmarked) [Compound 408], the IC50 is reported as < 1500 nM. For `CCN(CC1CCCN(Cc2ccc(Cl)cc2)C1)C(=O)c1cc2cccc(F)c2[nH]1` (centres unmarked) [Compound 157], the IC50 was > 10000 nM. For `CN(CC1CCN(Cc2ccccc2Cl)CC1)C(=O)c1cc2ccccc2[nH]1` [compound 259], the IC50 was > 10000 nM. In the case of `COc1cccc(CCN2CCC(CN(CC(F)(F)F)C(=O)c3cc4ccccc4[nH]3)CC2)c1` [compound 307], the IC50 is reported as < 1500 nM. For `CCN(CC1CCCN(CCc2cccc(OC)c2)C1)C(=O)c1c[nH]c2ccccc12` (centres unmarked) [Compound 232], the IC50 was < 1500 nM. `CCN(CC1CCCN(CCc2cccc(OC)c2)C1)C(=O)c1ccco1` (centres unmarked) [Compound 247] showed an IC50 of 4000 to 7000 nM. For `CCN(CC1CCN(Cc2ccc(F)cc2)CC1)C(=O)c1cc2ccccc2[nH]1` [compound 290], the IC50 was > 10000 nM. With `CCN(CC1CCCN(S(=O)(=O)c2ccc(OC)cc2)C1)C(=O)c1cc2ccccc2[nH]1` (centres unmarked) [Compound 200] the IC50 was 1500 to 4000 nM.
